Laboratory results: patent publication US4468511A, “C-20- And C-23-Modified macrolide derivatives” (Eli Lilly and Company, priority 1983, dated 1984)
Values after ≈ are worked out from the molar mass of the structure shown. Like-named read-outs stand apart in the source and are kept apart here.

Key:
Pasteurella multocida = experiment: Pasteurella infection in one-day old chicks; assay type: in vivo; conditions: subcutaneous, 30 mg/kg × 2, 1 and 4 hours post-challenge
Experimental: Certain of the formula 1 compounds of this invention have also shown in vivo activity against infections induced by gram-negative bacteria. Table V summarizes the results of tests in which illustrative compounds were evaluated against a Pasteurella infection in one-day old chicks. The compounds were administered parenterally after challenge of the chicks with Pasteurella multocida (0.1 ml of a 10^-4 dilution of a twenty-hour tryptose broth culture of an avian P. multocida given subcutaneously). In these tests, unless indicated otherwise, all non-medicated infected chicks died within 24 hours of Pasteurella challenge. In the tests summarized in Table V, the compounds were administered by subcutaneous injection at a dosage of 30 mg/kg, 1 and 4 hours post-challenge of the chicks with P. multocida.

[1] = test system: Staphylococcus aureus S13E; experiment: microbe, parasite or virus in culture; assay type: cell-based
Experimental: (§1) The MIC's in Table II were determined by standard agar-dilution assays. The MIC's in Table III were obtained using a conventional broth-dilution microtiter test.

[2] = test system: Staphylococcus epidermidis EPI1; experiment: microbe, parasite or virus in culture; assay type: cell-based
Experimental: as §1

[3] = test system: Staphylococcus aureus X400; experiment: MIC, standard agar-dilution assay; assay type: cell-based; conditions: Staphylococcus aureus, X400
Experimental: as §1

[4] = test system: Staphylococcus epidermidis EPI2; experiment: MIC, standard agar-dilution assay; assay type: cell-based; conditions: Staphylococcus epidermidis, EPI2
Experimental: as §1

Escherichia coli EC14 = experiment: MIC, standard agar-dilution assay; assay type: cell-based
Experimental: (§2) Certain of the derivatives are active against some gram-negative bacteria, such as Pasteurella species. The MIC's in Table II were determined by standard agar-dilution assays. The MIC's in Table III were obtained using a conventional broth-dilution microtiter test.

[5] = test system: Klebsiella pneumoniae X26; experiment: MIC, standard agar-dilution assay; assay type: cell-based
How it was run: (§3)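 Agar plates containing graded compound levels gave the Klebsiella value. Graded broth dilutions in microtiter plates gave the Pasteurella and Mycoplasma values.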

[6] = test system: Staphylococcus aureus V41; experiment: MIC, standard agar-dilution assay; assay type: cell-based
Experimental: as §2

Escherichia coli TEM = experiment: MIC, standard agar-dilution assay; assay type: cell-based
How it was run: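 Antibacterial activity toward the gram-negative organism Escherichia coli was assessed by conventional agar dilution. The MIC, reported in ug/mL, is the minimum compound concentration on agar that prevents growth.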

[7] = test system: Staphylococcus aureus X1.1; experiment: MIC, standard agar-dilution assay; assay type: cell-based; conditions: Staphylococcus aureus, X1.1
How it was run: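 A standard agar-dilution assay was used to test compounds against the Staphylococcus aureus isolate X1.1. Bacterial growth on agar with different compound concentrations was assessed, and the minimum inhibitory concentration was recorded in ug/mL.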

[8] = test system: Streptococcus pyogenes C203; experiment: MIC, standard agar-dilution assay; assay type: cell-based; conditions: Streptococcus pyogenes, C203
Experimental: as §2

[9] = test system: Streptococcus pyogenes 9960; experiment: MIC, standard agar-dilution assay; assay type: cell-based; conditions: 9960
Experimental: as §2

[10] = test system: Klebsiella pneumoniae KAE; experiment: MIC, standard agar-dilution assay; assay type: cell-based
How it was run: as §3

[11] = test system: Streptococcus pneumoniae Park I; experiment: MIC, standard agar-dilution assay; assay type: cell-based; conditions: Streptococcus pneumoniae
Experimental: as §2

[12] = test system: Streptococcus Group D X66; experiment: MIC, standard agar-dilution assay; assay type: cell-based
Experimental: as §2

[13] = test system: Streptococcus pyogenes C203; experiment: Protection of mice experimentally infected with S. pyogenes C203; assay type: in vivo
Experimental: Some of the derivatives of this invention have shown in vivo antimicrobial activity against experimentally-induced infections in laboratory animals. When two doses of test compound were administered to mice experimentally infected with S. pyogenes C203, the activity observed was measured as an ED50 value [effective dose in mg/kg to protect 50% of the test animals: see Warren Wick, et al., J. Bacteriol. 81, 233-235 (1961)].

[14] = test system: Pasteurella hemolytica 23C; experiment: MIC, conventional broth-dilution microtiter test; assay type: cell-based
How it was run: as §3

[15] = test system: Pasteurella multocida 68C; experiment: MIC, conventional broth-dilution microtiter test; assay type: cell-based
How it was run: as §3

[16] = test system: Pasteurella hemolytica 22C; experiment: MIC, conventional broth-dilution microtiter test; assay type: cell-based
How it was run: as §3

Mycoplasma hyorhinis = experiment: MIC, conventional broth-dilution microtiter test; assay type: cell-based
How it was run: (§4)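 Two formats were used. Broth dilution in microtiter plates served for Pasteurella and Mycoplasma, while agar dilution served for Klebsiella.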

Mycoplasma synoviae = experiment: MIC, conventional broth-dilution microtiter test; assay type: cell-based; conditions: Mycoplasmopsis synoviae
How it was run: as §4

[17] = test system: Pasteurella multocida 22A; experiment: MIC, conventional broth-dilution microtiter test; assay type: cell-based
How it was run: as §3

Mycoplasma gallisepticum = experiment: MIC, conventional broth-dilution microtiter test; assay type: cell-based; conditions: Mycoplasmoides gallisepticum
How it was run: as §3

[18] = test system: Pasteurella hemolytica 41D; experiment: MIC, conventional broth-dilution microtiter test; assay type: cell-based
How it was run: as §3

[19] = test system: Mycoplasma gallisepticum 34159; experiment: MIC, conventional broth-dilution microtiter test; assay type: cell-based; conditions: Mycoplasmoides gallisepticum
How it was run: as §3

[20] = test system: Pasteurella multocida 17E; experiment: MIC, conventional broth-dilution microtiter test; assay type: cell-based
How it was run: as §3

Streptococcus sp. 80 = experiment: MIC, conventional broth-dilution microtiter test; assay type: cell-based
Experimental: as §2

[21] = test system: Pasteurella multocida 40G; experiment: MIC, conventional broth-dilution microtiter test; assay type: cell-based
How it was run: as §3

[22] = test system: Mycoplasma gallisepticum 41313; experiment: MIC, conventional broth-dilution microtiter test; assay type: cell-based; conditions: Mycoplasmoides gallisepticum
How it was run: as §3

Staphylococcus aureus = experiment: MIC, conventional broth-dilution microtiter test; assay type: cell-based
Experimental: as §2

[23] = test system: Pasteurella multocida 60A; experiment: MIC, conventional broth-dilution microtiter test; assay type: cell-based
How it was run: as §3

[24] = test system: Haemophilus influenzae 76; experiment: MIC, standard agar-dilution assay; assay type: cell-based; conditions: Haemophilus influenzae, 76
Experimental: as §1

[25] = test system: Haemophilus influenzae C.L.; experiment: MIC, standard agar-dilution assay; assay type: cell-based; conditions: Haemophilus influenzae
Experimental: as §1

[26] = C203, sc, read-out: ED50 Subcutaneous

For CCC1OC(=O)CC(O)C(C)C(OC2OC(C)C(O)C(N(C)C)C2O)C(CCOC(=O)Cc2ccccc2)CC(C)C(=O)C=CC(C)=CC1COC(=O)Cc1ccccc1 (centres unmarked) [Compound 30, 20,23-Di-O-Phenylacetyl-20-dihydro-OMT], the “Number of Deaths/Number Treated” value (Pasteurella multocida) was 9/10, the MIC [1] was 0.25 µg/mL (≈ 0.299 µM) and the MIC ([2]; Staphylococcus epidermidis, EPI1) was 0.25 µg/mL (≈ 0.299 µM). It also gave an MIC [3] of 0.5 µg/mL (≈ 0.598 µM), an MIC [4] of 0.5 µg/mL (≈ 0.598 µM) and an MIC (Escherichia coli EC14; Escherichia coli, EC14) greater than 128 µg/mL. For the same compound, the MIC ([5]; Klebsiella pneumoniae, X26) was 8 µg/mL (≈ 9.57 µM), the MIC ([6]; Staphylococcus aureus, V41) was 0.25 µg/mL (≈ 0.299 µM) and the MIC (Escherichia coli TEM; Escherichia coli) was 8 µg/mL (≈ 9.57 µM). It also gave an MIC [7] of 0.25 µg/mL (≈ 0.299 µM), an MIC [8] of 0.25 µg/mL (≈ 0.299 µM) and an MIC [9] of 0.5 µg/mL (≈ 0.598 µM). It also gave an MIC ([10]; Klebsiella pneumoniae) greater than 128 µg/mL, an MIC [11] of 0.12 µg/mL (≈ 0.144 µM) and an MIC [12] of 0.5 µg/mL (≈ 0.598 µM). It also gave an ED50 ([13]; C203, po, read-out: ED50 Oral) greater than 100 mg/kg, an ED50 [13, 26] greater than 30 mg/kg and an MIC ([14]; Pasteurella, 23C) of 6.25 µg/mL (≈ 7.48 µM). For the same compound, the MIC ([15]; Pasteurella multocida, 68C) was 6.25 µg/mL (≈ 7.48 µM), the MIC ([16]; Pasteurella, 22C) was 6.25 µg/mL (≈ 7.48 µM) and the MIC (Mycoplasma hyorhinis; Mycoplasma) was 50 µg/mL (≈ 59.8 µM). For the same compound, the MIC (Mycoplasma synoviae) was 6.25 µg/mL (≈ 7.48 µM), the MIC ([17]; Pasteurella multocida, 22A) was 6.25 µg/mL (≈ 7.48 µM) and the MIC (Mycoplasma gallisepticum) was 0.78 µg/mL (≈ 0.933 µM). It also gave an MIC ([18]; Pasteurella, 41D) of 6.25 µg/mL (≈ 7.48 µM), an MIC [19]; 34159 of 12.5 µg/mL (≈ 15 µM) and an MIC ([20]; Pasteurella multocida, 17E) of 12.5 µg/mL (≈ 15 µM). The MIC (Streptococcus sp. 80; Streptococcus, SP.80) was 0.39 µg/mL (≈ 0.466 µM), the MIC ([21]; Pasteurella multocida, 40G) was 6.25 µg/mL (≈ 7.48 µM) and the MIC [22]; 41313 was 50 µg/mL (≈ 59.8 µM). The MIC (Staphylococcus aureus) was 1.56 µg/mL (≈ 1.87 µM) and the MIC ([23]; Pasteurella multocida, 60A) was 6.25 µg/mL (≈ 7.48 µM).

Compound CCC1CC(C)C(=O)C=CC(C)=CC(CSc2ccccc2)C(CC)OC(=O)CC(O)C(C)C1OC1OC(C)C(O)C(N(C)C)C1O (centres unmarked) [Compound 42, 23-Phenylthio-20,23-dideoxy-20-dihydro-OMT] has an MIC [1] of 1 µg/mL (≈ 1.48 µM), an MIC ([2]; agar-dilution, Staphylococcus epidermidis EPI1, read-out: MIC) of 0.5 µg/mL (≈ 0.74 µM) and an MIC [24] of 16 µg/mL (≈ 23.7 µM). The MIC [25] was 16 µg/mL (≈ 23.7 µM), the MIC [3] was 1 µg/mL (≈ 1.48 µM) and the MIC [4] was 1 µg/mL (≈ 1.48 µM). The MIC (Escherichia coli EC14; agar-dilution, Escherichia coli EC14, read-out: MIC) was greater than 128 µg/mL, the MIC ([5]; agar-dilution, Klebsiella pneumoniae X26, read-out: MIC) was 16 µg/mL (≈ 23.7 µM) and the MIC ([6]; agar-dilution, Staphylococcus aureus V41, Penicillin-resistant strain, read-out: MIC) was 0.5 µg/mL (≈ 0.74 µM). The MIC (Escherichia coli TEM; agar-dilution, Escherichia coli TEM, read-out: MIC) was greater than 128 µg/mL, the MIC [7] was 1 µg/mL (≈ 1.48 µM) and the MIC [8] was 1 µg/mL (≈ 1.48 µM). It also gave an MIC [9] of 1 µg/mL (≈ 1.48 µM), an MIC ([10]; agar-dilution, Klebsiella pneumoniae KAE, read-out: MIC) greater than 128 µg/mL and an MIC [11] of 0.12 µg/mL (≈ 0.178 µM). It also gave an MIC ([12]; agar-dilution, Streptococcus Group D X66, read-out: MIC) of 0.5 µg/mL (≈ 0.74 µM), an ED50 ([13]; C203, mice, oral, mg/kg × 2, doses given 1 and 4 hours postinfection, read-out: ED50 Oral) of 78 mg/kg and an ED50 [13, 26] greater than 25 mg/kg. For the same compound, the MIC ([14]; broth-dilution microtiter, Pasteurella hemolytica 23C, read-out: MIC) was 25 µg/mL (≈ 37 µM), the MIC ([15]; broth-dilution microtiter, Pasteurella multocida 68C, read-out: MIC) was 25 µg/mL (≈ 37 µM) and the MIC ([16]; broth-dilution microtiter, Pasteurella hemolytica 22C, read-out: MIC) was 25 µg/mL (≈ 37 µM). It also gave an MIC (Mycoplasma hyorhinis; broth-dilution microtiter, Mycoplasma hyorhinis, read-out: MIC) of 25 µg/mL (≈ 37 µM), an MIC (Mycoplasma synoviae) of 6.25 µg/mL (≈ 9.25 µM) and an MIC ([17]; broth-dilution microtiter, Pasteurella multocida 22A, read-out: MIC) of 25 µg/mL (≈ 37 µM). The MIC (Mycoplasma gallisepticum) was 6.25 µg/mL (≈ 9.25 µM), the MIC ([18]; broth-dilution microtiter, Pasteurella hemolytica 41D, read-out: MIC) was 25 µg/mL (≈ 37 µM) and the MIC ([19]; broth-dilution microtiter, Mycoplasma gallisepticum 34159, Resistant strain, read-out: MIC) was 25 µg/mL (≈ 37 µM). It also gave an MIC ([20]; broth-dilution microtiter, Pasteurella multocida 17E, Bovine isolate, read-out: MIC) of 25 µg/mL (≈ 37 µM), an MIC (Streptococcus sp. 80; broth-dilution microtiter, Streptococcus sp. 80, read-out: MIC) of 1.56 µg/mL (≈ 2.31 µM) and an MIC ([21]; broth-dilution microtiter, Pasteurella multocida 40G, read-out: MIC) of 25 µg/mL (≈ 37 µM). For the same compound, the MIC ([22]; broth-dilution microtiter, Mycoplasma gallisepticum 41313, Resistant strain, read-out: MIC) was 25 µg/mL (≈ 37 µM), the MIC (Staphylococcus aureus; broth-dilution microtiter, read-out: MIC) was 1.56 µg/mL (≈ 2.31 µM) and the MIC ([23]; broth-dilution microtiter, Pasteurella multocida 60A, Avian isolate, read-out: MIC) was 12.5 µg/mL (≈ 18.5 µM).
